{"source": "patent US20240343727A1", "about": "“PYRIDAZINONE OR PYRIDINONE COMPOUNDS, PREPARATION METHODS AND USES THEREOF” (InventisBio Co., Ltd., priority 2021, published 2024)"}
{"target": "T1, PARP7 (Homo sapiens, UniProt Q7Z3E1)", "T1 sequence (Q7Z3E1 1-657)": "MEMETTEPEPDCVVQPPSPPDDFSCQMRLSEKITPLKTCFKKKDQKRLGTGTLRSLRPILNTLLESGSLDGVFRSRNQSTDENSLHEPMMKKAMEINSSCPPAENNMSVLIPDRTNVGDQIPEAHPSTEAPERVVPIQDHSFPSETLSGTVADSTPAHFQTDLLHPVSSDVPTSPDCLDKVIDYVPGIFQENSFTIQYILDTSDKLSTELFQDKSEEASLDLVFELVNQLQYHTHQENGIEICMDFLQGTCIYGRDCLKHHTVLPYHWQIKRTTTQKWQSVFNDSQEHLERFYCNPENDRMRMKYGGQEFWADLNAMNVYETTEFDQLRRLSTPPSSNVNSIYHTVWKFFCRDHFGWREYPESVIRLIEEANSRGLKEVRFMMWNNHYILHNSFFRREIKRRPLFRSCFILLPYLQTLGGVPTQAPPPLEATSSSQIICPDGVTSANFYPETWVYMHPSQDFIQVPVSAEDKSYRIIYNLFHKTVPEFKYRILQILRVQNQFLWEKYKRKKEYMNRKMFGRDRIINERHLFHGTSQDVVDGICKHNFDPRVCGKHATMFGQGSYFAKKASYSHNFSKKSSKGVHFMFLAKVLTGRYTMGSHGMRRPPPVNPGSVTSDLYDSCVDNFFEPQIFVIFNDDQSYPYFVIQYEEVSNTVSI", "assay": "PARP7 TR-FRET assay (binding, displacement of biotinylated Probe A)", "settings": "6 nM PARP7, 2 nM Probe A, 25° C., 30 min", "outline": "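His-tagged PARP7 at 6 nM was preincubated with compound and 2 nM biotinylated Probe A for 30 min at 25° C (HEPES pH 8.0, NaCl, BSA, DTT, Tween20). Europium-streptavidin/ULight-anti-His FRET was read as the 665/615 nm ratio after a further 30 min. IC50 was fitted from % inhibition normalised to vehicle and blank.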", "units": {"IC50": "µM"}}
{"molecule": "Cc1c(Oc2cccc(C(=O)N3CCN(c4ncc(C(F)(F)F)s4)CC3)c2)n[nH]c(=O)c1C(F)(F)F", "note": "[Compound 66]", "IC50": "< 0.1"}
{"molecule": "O=C(CC1CN(c2cc(C(F)(F)F)c(=O)[nH]n2)c2cc(Cl)ccc2O1)N1CCN(c2ncc(C(F)(F)F)cn2)CC1", "note": "(single isomer, unassigned) [Compound 132]", "IC50": "< 0.1"}
{"molecule": "O=C(CC1CN(c2cc(C(F)(F)F)c(=O)[nH]n2)c2ccccc2O1)N1CCN(c2nnc(C(F)(F)F)s2)CC1", "note": "(single isomer, unassigned) [Compound 287]", "IC50": "0.1 to 1"}
{"molecule": "Cn1cc(-c2ccc3c(c2)N(c2cc(C(F)(F)F)c(=O)[nH]n2)CC(CC(=O)N2CCN(c4ncc(C(F)(F)F)cn4)CC2)O3)cn1", "note": "(single isomer, unassigned) [Compound 193]", "IC50": "< 0.1"}
{"molecule": "C#Cc1ccc2c(N3CCOC(CC(=O)N4CCN(c5ncc(C(F)(F)F)cn5)CC4)C3)n[nH]c(=O)c2c1", "note": "(single isomer, unassigned) [Compound 196]", "IC50": "0.1 to 1"}
{"molecule": "Cc1c(N2CCC[C@H]2CCC(=O)N2CCN(c3ncc(C(F)(F)F)cn3)CC2)n[nH]c(=O)c1C(F)(F)F", "note": "[Compound 127]", "IC50": "< 0.1"}
{"molecule": "C[C@@H]1CN(c2cc(C(F)(F)F)c(=O)[nH]n2)C[C@@H](CC(=O)N2CCN(c3ncc(C(F)(F)F)cn3)CC2)O1", "note": "(stereo in doubt) [Compound 112]", "IC50": "< 0.1"}
{"molecule": "O=C(c1cncc(Oc2n[nH]c(=O)c(C(F)(F)F)c2N2CC3(C2)CC(F)(F)C3)c1)N1CCN(c2ccc(C(F)(F)F)cn2)CC1", "note": "[Compound 335]", "IC50": "< 0.1"}
{"molecule": "C#Cc1c(C)c(Oc2cccc(C(=O)N3CCN(c4ncc(C(F)(F)F)cn4)CC3)c2)n[nH]c1=O", "note": "[Compound 75]", "IC50": "< 0.1"}
{"molecule": "CC1CN(c2c(Oc3cccc(C(=O)N4CCN(c5ncc(C(F)(F)F)cn5)CC4)c3)n[nH]c(=O)c2C(F)(F)F)C1", "note": "[Compound 181]", "IC50": "< 0.1"}
{"molecule": "N#Cc1ccc(N2CCN(C(=O)c3cncc(Oc4n[nH]c(=O)c(C(F)(F)F)c4N4CC5(C4)CC(F)(F)C5)c3)CC2)nc1", "note": "[Compound 237]", "IC50": "< 0.1"}
{"molecule": "C[C@@H]1CN(C(=O)CC2CN(c3cc(C(F)(F)F)c(=O)[nH]n3)c3cc(F)ccc3O2)CCN1c1ncc(C#N)cn1", "note": "(single isomer, unassigned) [Compound 326]", "IC50": "0.1 to 1"}
{"molecule": "O=C(CC1CN(c2cc(C(F)(F)F)c(=O)[nH]n2)c2ccccc2O1)N1CCN(c2ncc(Cl)cn2)CC1", "note": "(single isomer, unassigned) [Compound 295]", "IC50": "0.1 to 1"}
{"molecule": "N#Cc1ccc(N2CCN(C(=O)CC3CN(c4cc(C(F)(F)F)c(=O)[nH]n4)c4cc(F)ccc4O3)CC2)nc1", "note": "(single isomer, unassigned) [Compound 269]", "IC50": "0.1 to 1"}
{"molecule": "O=C(CC1CN(c2n[nH]c(=O)c3ccc(OCC(F)F)cc23)CCO1)N1CCN(c2ncc(C(F)(F)F)cn2)CC1", "note": "(single isomer, unassigned) [Compound 210]", "IC50": "< 0.1"}
{"molecule": "O=C(CC1CN(c2n[nH]c(=O)c3ncccc23)CCO1)N1CCN(c2ncc(C(F)(F)F)cn2)CC1", "note": "(single isomer, unassigned) [Compound 126]", "IC50": "> 1"}
{"molecule": "C[C@H]1CN(c2cc(C(F)(F)F)c(=O)[nH]n2)C[C@H](CC(=O)N2CCN(c3ncc(C(F)(F)F)cn3)CC2)O1", "note": "(stereo in doubt) [Compound 111]", "IC50": "< 0.1"}
{"molecule": "COC[C@@H]1C[C@H](OCC(=O)N2CCN(c3ncc(C(F)(F)F)cn3)CC2)c2n[nH]c(=O)c(C(F)(F)F)c2O1", "note": "[Compound 116]", "IC50": "0.1 to 1"}
{"molecule": "O=C(C[C@@H]1CCCN1c1n[nH]c(=O)c2ccccc12)N1CCN(c2ncc(C(F)(F)F)cn2)CC1", "note": "[Compound 47]", "IC50": "> 1"}
{"molecule": "CCOC1CN(c2c(Oc3cccc(C(=O)N4CCN(c5ncc(C(F)(F)F)cn5)CC4)c3)n[nH]c(=O)c2C(F)(F)F)C1", "note": "[Compound 214]", "IC50": "< 0.1"}
{"molecule": "O=C(CC1CN(c2n[nH]c(=O)c3cc(OCC(F)F)ccc23)CCO1)N1CCN(c2ncc(C(F)(F)F)cn2)CC1", "note": "(single isomer, unassigned) [Compound 209]", "IC50": "> 1"}
{"molecule": "N#CC1(c2ccnc(N3CCN(C(=O)CC4CN(c5cc(C(F)(F)F)c(=O)[nH]n5)c5cc(F)ccc5O4)CC3)n2)CC1", "note": "(single isomer, unassigned) [Compound 344]", "IC50": "> 1"}
{"molecule": "CC(C)C1CN(c2c(Oc3cccc(C(=O)N4CCN(c5ncc(C(F)(F)F)cn5)CC4)c3)n[nH]c(=O)c2C(F)(F)F)C1", "note": "[Compound 183]", "IC50": "< 0.1"}
{"molecule": "CNC1CN(c2c(Oc3cccc(C(=O)N4CCN(c5ncc(C(F)(F)F)cn5)CC4)c3)n[nH]c(=O)c2C(F)(F)F)C1", "note": "[Compound 61]", "IC50": "< 0.1"}
{"molecule": "Cc1cccc2c(N3CCOC(CC(=O)N4CCN(c5ncc(C(F)(F)F)cn5)CC4)C3)n[nH]c(=O)c12", "note": "(single isomer, unassigned) [Compound 106]", "IC50": "0.1 to 1"}
{"molecule": "Cc1c(N2C[C@H](CC(=O)N3CCN(c4ncc(C(F)(F)F)cn4)CC3)O[C@H](C)C2)n[nH]c(=O)c1C(F)(F)F", "note": "(stereo in doubt) [Compound 41]", "IC50": "< 0.1"}
{"molecule": "C#Cc1ccc2c(=O)[nH]nc(N3CCOC(CC(=O)N4CCN(c5ncc(C(F)(F)F)cn5)CC4)C3)c2c1", "note": "(single isomer, unassigned) [Compound 195]", "IC50": "< 0.1"}
{"molecule": "C[C@@H]1C[C@H](OCC(=O)N2CCN(c3ncc(C(F)(F)F)cn3)CC2)c2n[nH]c(=O)c(C(F)(F)F)c2O1", "note": "[Compound 115]", "IC50": "0.1 to 1"}
{"molecule": "O=C(COC1CCOc2c1n[nH]c(=O)c2C(F)(F)F)N1CCN(c2ncc(C(F)(F)F)cn2)CC1", "note": "(single isomer, unassigned) [Compound 10]", "IC50": "< 0.1"}
{"molecule": "O=C(CC1CN(c2cc(C(F)(F)F)c(=O)[nH]n2)c2cc(C3CC3)ccc2O1)N1CCN(c2ncc(C(F)(F)F)cn2)CC1", "note": "(single isomer, unassigned) [Compound 135]", "IC50": "< 0.1"}
{"molecule": "COCCNC(=O)c1ccc2c(c1)N(c1cc(C(F)(F)F)c(=O)[nH]n1)CC(CC(=O)N1CCN(c3ncc(C(F)(F)F)cn3)CC1)O2", "note": "(single isomer, unassigned) [Compound 310]", "IC50": "< 0.1"}
{"molecule": "Cc1c(Oc2cccc(C(=O)N3CC[C@H](Oc4ncc(C(F)(F)F)cn4)C3)c2)n[nH]c(=O)c1C(F)(F)F", "note": "[Compound 28]", "IC50": "> 1"}
{"molecule": "CC(C)(O)c1cnc(N2CCN(C(=O)CC3CN(c4cc(C(F)(F)F)c(=O)[nH]n4)c4cc(Cl)ccc4O3)CC2)nc1", "note": "(single isomer, unassigned) [Compound 151]", "IC50": "< 0.1"}
{"molecule": "O=C(CC1CN(c2n[nH]c(=O)c3cc(Cl)ccc23)CCO1)N1CCN(c2ncc(C(F)(F)F)cn2)CC1", "note": "(single isomer, unassigned) [Compound 121]", "IC50": "0.1 to 1"}
{"molecule": "O=C(CC1CN(c2cc(C(F)(F)F)c(=O)[nH]n2)c2ccccc2O1)N1CCN(c2ncc(C(F)F)cn2)CC1", "note": "(single isomer, unassigned) [Compound 248]", "IC50": "< 0.1"}
{"molecule": "C[C@@H]1CN(C(=O)c2cncc(Oc3n[nH]c(=O)c(C(F)(F)F)c3N3CC4(C3)CC(F)(F)C4)c2)CCN1c1ncc(C(F)(F)F)cn1", "note": "[Compound 314]", "IC50": "< 0.1"}
{"molecule": "O=C(CC1CN(c2cc(C(F)(F)F)c(=O)[nH]n2)CCC1(F)F)N1CCN(c2ncc(C(F)(F)F)cn2)CC1", "note": "(single isomer, unassigned) [Compound 108]", "IC50": "< 0.1"}
{"molecule": "Cc1c(N2CCOC(CC(=O)N3CCN(c4ncc(C(F)(F)F)cn4)CC3)C2)n[nH]c(=O)c1C(F)(F)F", "note": "(single isomer, unassigned) [Compound 38]", "IC50": "< 0.1"}
{"molecule": "N#Cc1cnc(N2CCN(C(=O)CC3CN(c4cc(C(F)(F)F)c(=O)[nH]n4)c4cc(Cl)ccc4O3)CC2)nc1", "note": "(single isomer, unassigned) [Compound 293]", "IC50": "< 0.1"}
{"molecule": "N#Cc1cnc(N2CCN(C(=O)c3cc(Oc4n[nH]c(=O)c(C(F)(F)F)c4N4CC5(C4)CC(F)(F)C5)ccn3)CC2)nc1", "note": "[Compound 305]", "IC50": "< 0.1"}
{"molecule": "CO[C@H]1C[C@H](Nc2c(Oc3cccc(C(=O)N4CCN(c5ncc(C(F)(F)F)cn5)CC4)c3)n[nH]c(=O)c2C(F)(F)F)C1", "note": "[Compound 190]", "IC50": "< 0.1"}
{"molecule": "N#CC1(c2ccnc(N3CCN(C(=O)CC4CN(c5cc(C(F)(F)F)c(=O)[nH]n5)c5cc(F)ccc5O4)CC3)n2)CC1", "note": "(single isomer, unassigned) [Compound 343]", "IC50": "< 0.1"}
{"molecule": "O=C(c1cncc(Oc2n[nH]c(=O)c(C(F)(F)F)c2N2CC3(C2)CC(F)(F)C3)c1)N1CCN(c2ncc(Cl)cn2)CC1", "note": "[Compound 277]", "IC50": "< 0.1"}
{"molecule": "O=C(CC1CN(c2n[nH]c(=O)c3ccc(F)cc23)CCO1)N1CCN(c2ncc(C(F)(F)F)cn2)CC1", "note": "(single isomer, unassigned) [Compound 52]", "IC50": "< 0.1"}
{"molecule": "C[C@@H]1CN(C(=O)c2cccc(Oc3n[nH]c(=O)c(C(F)(F)F)c3N3CC(C#N)C3)c2)CCN1c1ncc(C(F)(F)F)cn1", "note": "[Compound 350]", "IC50": "< 0.1"}
{"molecule": "N#CC1(c2ccc3c(c2)N(c2cc(C(F)(F)F)c(=O)[nH]n2)CC(CC(=O)N2CCN(c4ncc(C(F)(F)F)cn4)CC2)O3)CC1", "note": "(single isomer, unassigned) [Compound 338]", "IC50": "< 0.1"}
{"molecule": "N#Cc1ccc2c(c1)N(c1cc(C(F)(F)F)c(=O)[nH]n1)CC(CC(=O)N1CCN(c3ncc(C(F)(F)F)cn3)CC1)O2", "note": "(stereo not drawn) [Compound 136]", "IC50": "< 0.1"}
{"molecule": "O=C(c1cccc(Oc2n[nH]c(=O)c(C(F)(F)F)c2N2CC3(CCC3)C2)c1)N1CCN(c2ncc(OC(F)(F)F)cn2)CC1", "note": "[Compound 276]", "IC50": "< 0.1"}
